Data as given in the supplement of paper PMC10307832.

Key:
Assay in all cases: relative viability (nuclei count vs DMSO), 5 days (fraction); higher = more cells survive
[1] = tested on: HARA
In short: (§1)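 After 5 days of treatment, lung cancer cells in 1536-well plates were fixed and stained in a single step (final 0.05% Triton X-100, 1% formaldehyde, 1 ug/ml Hoechst) and their nuclei counted on 4× images. Treatment had been applied by pin tool the day after seeding as one drug alone or as a fixed anchor-drug dose with five library-drug doses (not always all listed) in √10 steps. Relative viability is the nuclei count of treated wells divided by that of vehicle wells, and values are medians of duplicate plates.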

[2] = tested on: NCI-H1975
In short: as §1

[3] = tested on: NCI-H1437
In short: as §1

[4] = tested on: SW 900
In short: as §1

[5] = tested on: NCI-H596
In short: as §1

[6] = tested on: NCI-H520
In short: as §1

[7] = tested on: HCC-44
In short: as §1

[8] = tested on: NCI-H838
In short: as §1

[9] = tested on: NCI-H650
In short: as §1

[10] = tested on: NCI-H522
In short: as §1

[11] = tested on: A-427
In short: as §1

[12] = tested on: NCI-H1666
In short: as §1

[13] = tested on: LCLC-103H
In short: as §1

[14] = tested on: EKVX
In short: as §1

[15] = tested on: NCI-H23
In short: as §1

[16] = tested on: NCI-H441
In short: as §1

[17] = tested on: 201T
In short: as §1

[18] = tested on: COR-L23
In short: as §1

[19] = tested on: HCC-15
In short: as §1

[20] = tested on: LK-2
In short: as §1

[21] = tested on: SK-MES-1
In short: as §1

[22] = tested on: HCC-827
In short: as §1

[23] = tested on: COR-L 105
In short: as §1

C[C@@H]1CN(CC(=O)Nc2ccc3c(c2)Cc2cccc(-c4cc(=O)cc(N5CCOCC5)o4)c2S3)C[C@H](C)O1 + Cc1cc(Nc2cc(N3CCN(C)CC3)nc(Sc3ccc(NC(=O)C4CC4)cc3)n2)n[nH]1 [Tozasertib] (partner 0.1 µM)
relative viability ([1]; first compound 0.1265 µM): 0.105 | relative viability ([1]; first compound 0.4 µM): 0.0954 | relative viability ([1]; first compound 4 µM): 0.104 | relative viability ([2]; first compound 0.04 µM): 0.781 | relative viability ([2]; first compound 0.1265 µM): 0.675 | relative viability ([2]; first compound 0.4 µM): 0.611 | relative viability ([2]; first compound 4 µM): 0.193 | relative viability ([3]; first compound 0.04 µM): 0.379 | relative viability ([3]; first compound 0.1265 µM): 0.354 | relative viability ([3]; first compound 0.4 µM): 0.395 | relative viability ([3]; first compound 4 µM): 0.365 | relative viability ([4]; first compound 0.04 µM): 0.463 | relative viability ([4]; first compound 0.1265 µM): 0.579 | relative viability ([4]; first compound 0.4 µM): 0.476 | relative viability ([4]; first compound 4 µM): 0.335 | relative viability ([5]; first compound 0.04 µM): 0.934 | relative viability ([5]; first compound 0.1265 µM): 1.13 | relative viability ([5]; first compound 0.4 µM): 0.759 | relative viability ([5]; first compound 4 µM): 0.762 | relative viability ([6]; first compound 0.04 µM): 0.474 | relative viability ([6]; first compound 0.1265 µM): 0.454 | relative viability ([6]; first compound 0.4 µM): 0.356 | relative viability ([6]; first compound 4 µM): 0.448 | relative viability ([7]; first compound 0.04 µM): 0.862 | relative viability ([7]; first compound 0.1265 µM): 0.933 | relative viability ([7]; first compound 0.4 µM): 1.05 | relative viability ([7]; first compound 4 µM): 0.652 | relative viability ([8]; first compound 0.04 µM): 0.255 | relative viability ([8]; first compound 0.1265 µM): 0.279 | relative viability ([8]; first compound 0.4 µM): 0.28 | relative viability ([8]; first compound 4 µM): 0.202 | relative viability ([9]; first compound 0.04 µM): 0.655 | relative viability ([9]; first compound 0.1265 µM): 0.811 | relative viability ([9]; first compound 0.4 µM): 0.698 | relative viability ([9]; first compound 4 µM): 0.581 | relative viability ([10]; first compound 0.04 µM): 0.542 | relative viability ([10]; first compound 0.1265 µM): 0.56 | relative viability ([10]; first compound 0.4 µM): 0.583 | relative viability ([10]; first compound 4 µM): 0.557 | relative viability ([11]; first compound 0.04 µM): 0.176 | relative viability ([11]; first compound 0.1265 µM): 0.214 | relative viability ([11]; first compound 0.4 µM): 0.214 | relative viability ([11]; first compound 4 µM): 0.205 | relative viability ([12]; first compound 0.04 µM): 0.637 | relative viability ([12]; first compound 0.1265 µM): 0.689 | relative viability ([12]; first compound 0.4 µM): 0.622 | relative viability ([12]; first compound 4 µM): 0.43 | relative viability ([13]; first compound 0.04 µM): 0.532 | relative viability ([13]; first compound 0.1265 µM): 0.498 | relative viability ([13]; first compound 0.4 µM): 0.544 | relative viability ([13]; first compound 4 µM): 0.417 | relative viability ([14]; first compound 0.04 µM): 0.389 | relative viability ([14]; first compound 0.1265 µM): 0.44 | relative viability ([14]; first compound 0.4 µM): 0.432 | relative viability ([14]; first compound 4 µM): 0.305 | relative viability ([15]; first compound 0.04 µM): 0.362 | relative viability ([15]; first compound 0.1265 µM): 0.308 | relative viability ([15]; first compound 0.4 µM): 0.348 | relative viability ([15]; first compound 4 µM): 0.198 | relative viability ([16]; first compound 0.04 µM): 0.601 | relative viability ([16]; first compound 0.1265 µM): 0.678 | relative viability ([16]; first compound 0.4 µM): 0.528 | relative viability ([16]; first compound 4 µM): 0.49 | relative viability ([17]; first compound 0.04 µM): 0.93 | relative viability ([17]; first compound 0.1265 µM): 0.882 | relative viability ([17]; first compound 0.4 µM): 0.909 | relative viability ([17]; first compound 4 µM): 0.922 | relative viability ([18]; first compound 0.04 µM): 0.199 | relative viability ([18]; first compound 0.1265 µM): 0.218 | relative viability ([18]; first compound 0.4 µM): 0.159 | relative viability ([18]; first compound 4 µM): 0.137 | relative viability ([19]; first compound 0.04 µM): 0.334 | relative viability ([19]; first compound 0.1265 µM): 0.372 | relative viability ([19]; first compound 0.4 µM): 0.385 | relative viability ([19]; first compound 4 µM): 0.151 | relative viability ([20]; first compound 0.1265 µM): 0.174 | relative viability ([20]; first compound 0.4 µM): 0.185 | relative viability ([20]; first compound 4 µM): 0.17 | relative viability ([21]; first compound 0.04 µM): 1.09 | relative viability ([21]; first compound 0.1265 µM): 0.852 | relative viability ([21]; first compound 0.4 µM): 0.826 | relative viability ([21]; first compound 4 µM): 0.647 | relative viability ([22]; first compound 0.04 µM): 0.451 | relative viability ([22]; first compound 0.1265 µM): 0.396 | relative viability ([22]; first compound 0.4 µM): 0.41 | relative viability ([22]; first compound 4 µM): 0.427 | relative viability ([23]; first compound 0.04 µM): 0.321 | relative viability ([23]; first compound 0.1265 µM): 0.332 | relative viability ([23]; first compound 0.4 µM): 0.352 | relative viability ([23]; first compound 4 µM): 0.296

C[C@@H]1CN(CC(=O)Nc2ccc3c(c2)Cc2cccc(-c4cc(=O)cc(N5CCOCC5)o4)c2S3)C[C@H](C)O1 + O=C(CCCCCCC(=O)Nc1ccccc1)NO [Vorinostat] (partner 1 µM)
relative viability ([1]; first compound 0.04 µM): 0.511 | relative viability ([1]; first compound 0.1265 µM): 0.61 | relative viability ([1]; first compound 0.4 µM): 0.445 | relative viability ([1]; first compound 4 µM): 0.436 | relative viability ([2]; first compound 0.04 µM): 0.68 | relative viability ([2]; first compound 0.1265 µM): 0.717 | relative viability ([2]; first compound 0.4 µM): 0.61 | relative viability ([2]; first compound 4 µM): 0.536 | relative viability ([3]; first compound 0.04 µM): 0.837 | relative viability ([3]; first compound 0.1265 µM): 0.768 | relative viability ([3]; first compound 0.4 µM): 0.819 | relative viability ([3]; first compound 4 µM): 0.609 | relative viability ([4]; first compound 0.04 µM): 0.421 | relative viability ([4]; first compound 0.1265 µM): 0.607 | relative viability ([4]; first compound 0.4 µM): 0.534 | relative viability ([4]; first compound 4 µM): 0.381 | relative viability ([5]; first compound 0.04 µM): 0.627 | relative viability ([5]; first compound 0.1265 µM): 0.707 | relative viability ([5]; first compound 0.4 µM): 0.642 | relative viability ([5]; first compound 4 µM): 0.567 | relative viability ([6]; first compound 0.04 µM): 0.776 | relative viability ([6]; first compound 0.1265 µM): 0.677 | relative viability ([6]; first compound 0.4 µM): 0.656 | relative viability ([6]; first compound 4 µM): 0.562 | relative viability ([7]; first compound 0.04 µM): 1.12 | relative viability ([7]; first compound 0.1265 µM): 1.01 | relative viability ([7]; first compound 0.4 µM): 1.08 | relative viability ([7]; first compound 4 µM): 0.966 | relative viability ([8]; first compound 0.04 µM): 0.751 | relative viability ([8]; first compound 0.1265 µM): 0.646 | relative viability ([8]; first compound 0.4 µM): 0.633 | relative viability ([8]; first compound 4 µM): 0.535 | relative viability ([9]; first compound 0.04 µM): 0.364 | relative viability ([9]; first compound 0.1265 µM): 0.386 | relative viability ([9]; first compound 0.4 µM): 0.39 | relative viability ([9]; first compound 4 µM): 0.414 | relative viability ([10]; first compound 0.04 µM): 0.539 | relative viability ([10]; first compound 0.1265 µM): 0.696 | relative viability ([10]; first compound 0.4 µM): 0.876 | relative viability ([10]; first compound 4 µM): 0.766 | relative viability ([11]; first compound 0.04 µM): 0.853 | relative viability ([11]; first compound 0.1265 µM): 0.92 | relative viability ([11]; first compound 0.4 µM): 0.908 | relative viability ([11]; first compound 4 µM): 0.779 | relative viability ([12]; first compound 0.04 µM): 1.01 | relative viability ([12]; first compound 0.1265 µM): 1.17 | relative viability ([12]; first compound 0.4 µM): 1.09 | relative viability ([12]; first compound 4 µM): 0.885 | relative viability ([13]; first compound 0.04 µM): 0.743 | relative viability ([13]; first compound 0.1265 µM): 0.674 | relative viability ([13]; first compound 0.4 µM): 0.804 | relative viability ([13]; first compound 4 µM): 0.706 | relative viability ([14]; first compound 0.04 µM): 0.753 | relative viability ([14]; first compound 0.1265 µM): 0.666 | relative viability ([14]; first compound 0.4 µM): 0.696 | relative viability ([14]; first compound 4 µM): 0.661 | relative viability ([15]; first compound 0.04 µM): 0.634 | relative viability ([15]; first compound 0.1265 µM): 0.508 | relative viability ([15]; first compound 0.4 µM): 0.537 | relative viability ([15]; first compound 4 µM): 0.589 | relative viability ([16]; first compound 0.04 µM): 0.718 | relative viability ([16]; first compound 0.1265 µM): 0.777 | relative viability ([16]; first compound 0.4 µM): 0.849 | relative viability ([16]; first compound 4 µM): 0.625 | relative viability ([17]; first compound 0.04 µM): 0.926 | relative viability ([17]; first compound 0.1265 µM): 0.942 | relative viability ([17]; first compound 0.4 µM): 1.01 | relative viability ([17]; first compound 4 µM): 0.81 | relative viability ([18]; first compound 0.04 µM): 0.433 | relative viability ([18]; first compound 0.1265 µM): 0.451 | relative viability ([18]; first compound 0.4 µM): 0.473 | relative viability ([18]; first compound 4 µM): 0.333 | relative viability ([19]; first compound 0.04 µM): 0.825 | relative viability ([19]; first compound 0.1265 µM): 0.769 | relative viability ([19]; first compound 0.4 µM): 0.729 | relative viability ([19]; first compound 4 µM): 0.663 | relative viability ([20]; first compound 0.04 µM): 0.314 | relative viability ([20]; first compound 0.1265 µM): 0.309 | relative viability ([20]; first compound 0.4 µM): 0.254 | relative viability ([20]; first compound 4 µM): 0.298 | relative viability ([21]; first compound 0.04 µM): 1.19 | relative viability ([21]; first compound 0.1265 µM): 1.07 | relative viability ([21]; first compound 0.4 µM): 1.01 | relative viability ([21]; first compound 4 µM): 0.855 | relative viability ([22]; first compound 0.04 µM): 0.801 | relative viability ([22]; first compound 0.1265 µM): 0.862 | relative viability ([22]; first compound 0.4 µM): 0.727 | relative viability ([22]; first compound 4 µM): 0.757 | relative viability ([23]; first compound 0.04 µM): 0.799 | relative viability ([23]; first compound 0.1265 µM): 0.783 | relative viability ([23]; first compound 0.4 µM): 0.926 | relative viability ([23]; first compound 4 µM): 0.875
